Results taken from US20230270677A1, “LONG-ACTING THERAPEUTIC AGENT COMBINATIONS AND METHODS THEREOF” (University of Washington, priority 2020, published 2023).
Read-outs that look alike come from different tables or passages of the source.

How the values were obtained:
[1] = Plasma pharmacokinetics after single subcutaneous dose in non-human primates (DcNP or free drug combination); details: for half-life: monkey, sc
Experimental: To evaluate whether presenting the three drugs—e.g., DTG-3TC-TFV, LPV-RTV-TFV, EFV-LPV-TFV, ATZ-RTV-TFV or 4 drugs—e.g., LPV-RTV-3TC-TFV in a combination nanosuspension using DcNP platform could provide long-acting plasma and intracellular drug exposure, macaques were subcutaneously administered with either DcNP formulated or soluble free drug combination. The free-drug combination (control) arm consisted of two groups. In the control group, 2-4 macaques were administered at an indicated single subcutaneous dose where equivalent dug combinations are dissolved in DMSO and diluted with water.
Whole blood in EDTA tubes was immediately centrifuged and plasma was removed and frozen at −80° C. until LC-MS/MS analysis.
Plasma drug concentrations were reported in units of nM. Non-compartmental parameters were estimated from plasma profiles for free and DcNP formulations using Phoenix WinNonlin (Certara, Princeton, N.J.). The following non-compartmental parameters were estimated: area under the plasma concentration-time curve (AUC) extrapolated to infinity; terminal half-life (t1/2); apparent clearance (CL/F); and mean body residence time (MBRT) based on moments extrapolated to infinity.

[2] = cited from earlier work
[3] = cited from earlier work; remark: listed apart in the source
[4] = cited from earlier work; remark: listed apart in the source
HIV-1 = details: read-out: therapeutically effective plasma concentration (EC50); cited from earlier work

For “[(2˜{R})-1-(6-aminopurin-9-yl)propan-2-yl]oxymethylphosphonic acid [Tenofovir]”, the “DcNP formulation (non-human primates) (plasma half-life, hours)” value ([1]; DcNP formulation, non-human primates) is given as >200 to 350 h and the “Oral single dose formulation (plasma half-life, hours)” value (shortened to “Oral single dose formulation”) ([2]; oral) is given as 8 to 17 h.
In the case of `C[C@H](Cn1cnc2c(N)ncnc21)OCP(=O)(O)O` [Tenofovir, [(2˜{R})-1-(6-aminopurin-9-yl)propan-2-yl]oxymethylphosphonic acid], the Water solubility [3] is given as 13000 µg/mL, the “log P” value [4] is given as −1.6 and the EC50 (HIV-1) is given as 40 to 8500 nM.
For `Cc1cccc(C)c1OCC(=O)N[C@@H](Cc1ccccc1)[C@@H](O)C[C@H](Cc1ccccc1)NC(=O)[C@H](C(C)C)N1CCCNC1=O` [Lopinavir, (2S)—N-[(2S,4S,5S)-5-[[2-(2,6-dimethylphenoxy)acetyl]amino]-4-hydroxy-1,6-diphenylhexan-2-yl]-3-methyl-2-(2-oxo-1,3-diazinan-1-yl)butanamide], the half-life ([1]; in vivo) is listed as 250 to 350 h, the EC50 (HIV-1) is listed as 10 to 27 nM and the “Oral single dose formulation” value ([2]; in vivo, po) is listed as 2.5 h.
For `CC(C)c1nc(CN(C)C(=O)N[C@H](C(=O)N[C@@H](Cc2ccccc2)C[C@H](O)[C@H](Cc2ccccc2)NC(=O)OCc2cncs2)C(C)C)cs1` [Ritonavir, 1,3-thiazol-5-ylmethyl N-[(2S,3S,5S)-3-hydroxy-5-[[(2S)-3-methyl-2-[[methyl-[(2-propan-2-yl-1,3-thiazol-4-yl)methyl]carbamoyl]amino]butanoyl]amino]-1,6-diphenylhexan-2-yl]carbamate], the half-life ([1]; plasma) is given as 250 to 350 h, the EC50 (HIV-1) is given as 3.8 to 153 nM and the “Oral single dose formulation” value ([2]; oral) is given as 2.5 h.
For `C[C@@H]1CCO[C@H]2Cn3cc(C(=O)NCc4ccc(F)cc4F)c(=O)c(O)c3C(=O)N12` [Dolutegravir], the half-life ([1]; plasma) is given as > 400 h, the Water solubility [3] is given as < 95 µg/mL and the “log P” value ([4]; listed as DTG) is given as > 2. For the same compound, the EC50 (HIV-1) was 0.02 to 2.14 nM and the “Oral single dose formulation” value ([2]; oral) was 23 h.
In the case of `O=C1Nc2ccc(Cl)cc2[C@@](C#CC2CC2)(C(F)(F)F)O1` [Efavirenz], the Water solubility [3] is given as 0.00855 µg/mL and the “log P” value [4] is given as 4.
In the case of `Cc1cc(/C=C/C#N)cc(C)c1Nc1ccnc(Nc2ccc(C#N)cc2)n1` [Rilpivirine, 4-[[4-[4-[(E)-2-cyanoethenyl]-2,6-dimethylanilino]pyrimidin-2-yl]amino]benzonitrile], the “log P” value [4] is listed as 4.5 and the EC50 (HIV-1) is listed as 0.7 to 1.1 nM.
